Results: patent US7342122B2, “Bisphosphonate complexes” (priority 2003, dated 2008)

Legend:
HCT-116 = experiment: Cell growth inhibition, colon cancer cell line HCT-116; type: cell-based; conditions: HCT-116, colon cancer cell line
Experimental: (§1) KB cells were purchased from Human Science Research Resource Bank (Osaka, Japan). The cells were cultured in Earle's MEM (GIBCO BRL) containing 10% FBS (Bio Whittaker) at 37° C. under 5% CO2. After 24 hours the test compounds were added to the cells at the indicated concentrations. 72 hours later the cells were stained with tripan blue and counted manually. IC50 is calculated as the concentration (aqueous solution) of complex required to inhibit growth of cells by 50%.
(§2) In a similar fashion a representative number of examples of compounds of the invention were tested for their ability to inhibit the growth/proliferation of cell types representing a number of different cancers. The results are provided in Tables 4-13, below, which provide the Inhibition Constants (IC50, μM) for each compound across various cell lines.

SF-539 = experiment: Cell growth inhibition, brain cancer cell line SF-539; type: cell-based; conditions: SF-539, brain cancer cell line
Experimental: as §1, §2

U251 = experiment: Cell growth inhibition, brain cancer cell line U251; type: cell-based
Experimental: as §1, §2

MCF-7 = experiment: Cell growth inhibition, breast cancer cell line MCF-7; type: cell-based; conditions: MCF-7, breast cancer cell line
Experimental: as §1, §2

SNB-78 = experiment: Cell growth inhibition, brain cancer cell line SNB-78; type: cell-based; conditions: SNB-78, brain cancer cell line
Experimental: as §1, §2

MKN45 = experiment: Cell growth inhibition, human stomach cancer MKN45; type: cell-based
Experimental: as §1, §2

MKN7 = experiment: Cell growth inhibition, human stomach cancer MKN7; type: cell-based
Experimental: as §1, §2

OVCAR-3 = experiment: Cell growth inhibition, ovarian cancer cell line OVCAR-3; type: cell-based; conditions: OVCAR-3, ovarian cancer cell line
Experimental: as §1, §2

A549 = experiment: Cell growth inhibition, lung cancer cell line A549; type: cell-based
Experimental: as §1, §2

SF-295 = experiment: Cell growth inhibition, brain cancer cell line SF-295; type: cell-based; conditions: SF-295, brain cancer cell line
Experimental: as §1, §2

[1] = system: all cell types (cancer cell lines of Tables 4-12); experiment: Cell growth inhibition, mean over all cell types of the panel; type: cell-based; conditions: mean over all cell lines of Tables 4-12
Experimental: as §1, §2

OVCAR-5 = experiment: Cell growth inhibition, ovarian cancer cell line OVCAR-5; type: cell-based; conditions: OVCAR-5, ovarian cancer cell line
Experimental: as §1, §2

HCC2998 = experiment: Cell growth inhibition, colon cancer cell line HCC2998; type: cell-based
Experimental: as §1, §2

SK-OV-3 = experiment: Cell growth inhibition, ovarian cancer cell line SK-OV-3; type: cell-based; conditions: SK-OV-3, ovarian cancer cell line
Experimental: as §1, §2

MKN1 = experiment: Cell growth inhibition, human stomach cancer MKN1; type: cell-based
Experimental: as §1, §2

HCT-15 = experiment: Cell growth inhibition, colon cancer cell line HCT-15; type: cell-based; conditions: HCT-15, colon cancer cell line
Experimental: as §1, §2

NCI-H226 = experiment: Cell growth inhibition, lung cancer cell line NCI-H226; type: cell-based
Experimental: as §1, §2

HBC-4 = experiment: Cell growth inhibition, breast cancer cell line HBC-4; type: cell-based; conditions: HBC-4, breast cancer cell line
Experimental: as §1, §2

HBC-5 = experiment: Cell growth inhibition, breast cancer cell line HBC-5; type: cell-based; conditions: HBC-5, breast cancer cell line
Experimental: as §1, §2

PC-3 = experiment: Cell growth inhibition, prostatic cancer PC-3; type: cell-based; conditions: PC-3, prostatic cancer
Experimental: as §1, §2

RXF-631L = experiment: Cell growth inhibition, renal cancer RXF-631L; type: cell-based
Experimental: as §1, §2

LOX-IMVI = experiment: Cell growth inhibition, melanoma cell line LOX-IMVI; type: cell-based
Experimental: as §1, §2

DMS114 = experiment: Cell growth inhibition, lung cancer cell line DMS114; type: cell-based
Experimental: as §1, §2

OVCAR-4 = experiment: Cell growth inhibition, ovarian cancer cell line OVCAR-4; type: cell-based; conditions: OVCAR-4, ovarian cancer cell line
Experimental: as §1, §2

MDA-MB-231 = experiment: Cell growth inhibition, breast cancer cell line MDA-MB-231; type: cell-based; conditions: MDA-MB-231, breast cancer cell line
Experimental: as §1, §2

MKN28 = experiment: Cell growth inhibition, human stomach cancer MKN28; type: cell-based
Experimental: as §1, §2

SF-268 = experiment: Cell growth inhibition, brain cancer cell line SF-268; type: cell-based; conditions: SF-268, brain cancer cell line
Experimental: as §1, §2

KB cells = experiment: In vitro assay, cell growth inhibition (KB cells); type: cell-based; conditions: 72 hours
Experimental: as §1

HT-29 = experiment: Cell growth inhibition, colon cancer cell line HT-29; type: cell-based; conditions: HT-29, colon cancer cell line
Experimental: as §1, §2

NCI-H23 = experiment: Cell growth inhibition, lung cancer cell line NCI-H23; type: cell-based
Experimental: as §1, §2

MKN74 = experiment: Cell growth inhibition, human stomach cancer MKN74; type: cell-based
Experimental: as §1, §2

BSY-1 = experiment: Cell growth inhibition, breast cancer cell line BSY-1; type: cell-based; conditions: BSY-1, breast cancer cell line
Experimental: as §1, §2

NCI-H460 = experiment: Cell growth inhibition, lung cancer cell line NCI-H460; type: cell-based
Experimental: as §1, §2

NCI-H522 = experiment: Cell growth inhibition, lung cancer cell line NCI-H522; type: cell-based
Experimental: as §1, §2

DU-145 = experiment: Cell growth inhibition, prostatic cancer DU-145; type: cell-based, human; conditions: DU-145, prostatic cancer
Experimental: as §1, §2

SNB-75 = experiment: Cell growth inhibition, brain cancer cell line SNB-75; type: cell-based; conditions: SNB-75, brain cancer cell line
Experimental: as §1, §2

DMS273 = experiment: Cell growth inhibition, lung cancer cell line DMS273; type: cell-based
Experimental: as §1, §2

KM-12 = experiment: Cell growth inhibition, colon cancer cell line KM-12; type: cell-based; conditions: KM-12, colon cancer cell line
Experimental: as §1, §2

St-4 = experiment: Cell growth inhibition, human stomach cancer St-4; type: cell-based; conditions: St-4, human stomach cancer
Experimental: as §1, §2

ACHN = experiment: Cell growth inhibition, renal cancer ACHN; type: cell-based
Experimental: as §1, §2

OVCAR-8 = experiment: Cell growth inhibition, ovarian cancer cell line OVCAR-8; type: cell-based; conditions: OVCAR-8, ovarian cancer cell line
Experimental: as §1, §2

log10 IC50 (M) (HCT-116): -5.38
log10 IC50 (M) (SF-539): -5.36
log10 IC50 (M) (U251): -5
log10 IC50 (M) (MCF-7): -5.28
log10 IC50 (M) (SNB-78): -4.67
log10 IC50 (M) (MKN45): -5.08
log10 IC50 (M) (MKN7): -5.04
log10 IC50 (M) (OVCAR-3): -4.95
log10 IC50 (M) (A549): -4.88
log10 IC50 (M) (SF-295): -5.31
log10 IC50 (M) [1]: -5.18
log10 IC50 (M) (OVCAR-5): -5.3
log10 IC50 (M) (HCC2998): -5.54
log10 IC50 (M) (SK-OV-3): -5.1
log10 IC50 (M) (MKN1): -5.28
log10 IC50 (M) (HCT-15): -5.14
log10 IC50 (M) (NCI-H226): -5.41
log10 IC50 (M) (HBC-4): -4.91
log10 IC50 (M) (HBC-5): -4.98
log10 IC50 (M) (PC-3): -4.9
log10 IC50 (M) (RXF-631L): -5.43
log10 IC50 (M) (LOX-IMVI): -5.15
log10 IC50 (M) (DMS114): -5.28
log10 IC50 (M) (OVCAR-4): -5.06
log10 IC50 (M) (MDA-MB-231): -5.29
log10 IC50 (M) (MKN28): -4.86
log10 IC50 (M) (SF-268): -5.27
IC50 (KB cells; concentration to inhibit growth of cells by 50%): 36 µM
log10 IC50 (M) (HT-29): -5.25
log10 IC50 (M) (NCI-H23): -4.88
log10 IC50 (M) (MKN74): -5.33
log10 IC50 (M) (BSY-1): -5.34
log10 IC50 (M) (NCI-H460): -5.86
log10 IC50 (M) (NCI-H522): -5.22
log10 IC50 (M) (DU-145): -5.1
log10 IC50 (M) (SNB-75): -5.16
log10 IC50 (M) (DMS273): -5.24
log10 IC50 (M) (KM-12): -5.22
log10 IC50 (M) (St-4): -5.12
log10 IC50 (M) (ACHN): -5.22
log10 IC50 (M) (OVCAR-8): -5.13
SMILES: [Cl-].[Cl-].c1cc[n+]2c(c1)-c1cccc[n+]1[Pd-2]21[NH2+]CC[NH+]1Cc1c2ccccc2cc2ccccc12 [Example 5, [Pd(bpy)(Aten)]Cl2]
KB cells remaining/growth in percent (Table 2, untitled) (KB cells; 1 μg/ml): 86.9%
KB cells remaining/growth in percent (Table 2, untitled) (KB cells; 3 μg/mL): 81.4%
KB cells remaining/growth in percent (Table 2, untitled) (KB cells; 10 μg/mL): 75.1%
KB cells remaining/growth in percent (Table 2, untitled) (KB cells; 30 μg/mL): 44.7%
KB cells remaining/growth in percent (Table 2, untitled) (KB cells; 100 μg/mL): 12.3%
